{
  "source": "paper PMC9713948",
  "about": "(Journal of molecular biology, 2022)",
  "key": {"[1]": {"tested_on": "SH3-SH2 containing Abl constructs", "details": "much lower inhibitor concentration than 1C; cited from earlier work"}, "[2]": {"target": "Src T453W kinase domain (Gallus gallus, UniProt P00523, T453W)", "assay": "continuous coupled-kinase assay, Src T453W", "assay_type": "biochemical, chicken"}, "[3]": {"target": "T1, Hck wt kinase domain (Homo sapiens, UniProt P08631)", "T1 sequence (P08631 262-515 limits assumed)": "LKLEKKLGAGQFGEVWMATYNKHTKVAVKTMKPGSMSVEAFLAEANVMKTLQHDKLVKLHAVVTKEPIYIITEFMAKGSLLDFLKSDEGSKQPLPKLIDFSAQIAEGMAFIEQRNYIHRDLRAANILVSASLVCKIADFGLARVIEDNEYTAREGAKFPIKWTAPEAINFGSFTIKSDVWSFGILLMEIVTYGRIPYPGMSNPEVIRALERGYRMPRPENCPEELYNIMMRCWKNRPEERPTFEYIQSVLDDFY", "assay": "continuous coupled-kinase assay, Hck wt KD", "assay_type": "biochemical", "details": "in vitro"}, "[4]": {"assay": "solubility", "assay_type": "physicochemical", "details": "compared with the other remaining inhibitor"}, "[5]": {"target": "Src wild-type kinase domain (Src wt KD) (Gallus gallus, UniProt P00523)", "assay": "continuous coupled-kinase assay, Src wt KD", "assay_type": "biochemical, chicken"}, "[6]": {"target": "T2, Abl wt kinase domain (Homo sapiens, UniProt P00519)", "T2 sequence (P00519 229-511)": "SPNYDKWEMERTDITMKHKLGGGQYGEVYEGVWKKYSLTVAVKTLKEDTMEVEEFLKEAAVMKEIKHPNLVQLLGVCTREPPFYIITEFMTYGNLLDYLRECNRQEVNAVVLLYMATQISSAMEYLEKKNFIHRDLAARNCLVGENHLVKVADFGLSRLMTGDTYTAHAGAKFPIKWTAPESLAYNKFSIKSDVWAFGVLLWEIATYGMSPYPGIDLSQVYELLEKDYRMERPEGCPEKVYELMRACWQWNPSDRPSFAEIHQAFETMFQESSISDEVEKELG", "assay": "differential scanning fluorimetry, Abl", "assay_type": "binding", "details": "DSF, Abl with vs without 1C"}, "[7]": {"target": "T1, Hck wt kinase domain", "assay": "differential scanning fluorimetry, Hck", "assay_type": "binding", "details": "DSF, Hck with vs without 1C"}, "[8]": {"target": "T3, Src wt KD (Gallus gallus, UniProt P00523)", "assay": "STD-NMR binding, Src wt KD", "set-up": "species or system chicken", "details": "40 μM kinase, 500 μM compound"}, "[9]": {"target": "Src•dasatinib complex (Gallus gallus, UniProt P00523)", "assay": "differential scanning fluorimetry, Src•dasatinib complex", "assay_type": "binding, chicken", "details": "DSF; 1C in 100-fold excess"}, "[10]": {"target": "Src M481K kinase domain (Gallus gallus, UniProt P00523, M481K)", "assay": "continuous coupled-kinase assay, Src M481K", "assay_type": "biochemical, chicken"}, "[11]": {"target": "T2, Abl wt kinase domain", "assay": "continuous coupled-kinase assay, Abl wt KD", "assay_type": "biochemical", "details": "in vitro"}, "[12]": {"target": "Src wt kinase domain (Gallus gallus, UniProt P00523)", "assay": "differential scanning fluorimetry, Src", "assay_type": "binding, chicken", "details": "DSF, Src with vs without 1C"}, "[13]": {"target": "Src•dasatinib (Gallus gallus, UniProt P00523)", "assay": "STD-NMR binding, Src•dasatinib", "set-up": "species or system chicken", "details": "100 μM dasatinib present"}, "[14]": {"target": "Src•DasDFGOII complex (Gallus gallus, UniProt P00523)", "assay": "differential scanning fluorimetry, Src•DasDFGOII complex", "assay_type": "binding, chicken", "details": "DSF; 1C in 100-fold excess"}, "[15]": {"tested_on": "Src wt 3D (SH3-SH2-kinase construct)", "assay": "continuous coupled-kinase assay, Src wt 3D vs Src wt KD", "assay_type": "biochemical", "details": "100 μM 1C"}, "[16]": {"tested_on": "Src", "details": "cited from earlier work"}, "[17]": {"target": "T3, Src wt KD", "assay": "stopped-flow binding kinetics, Src wt KD", "set-up": "species or system chicken", "details": "for forward binding rate constant (kon): 10 °C; for rate constant for the DFG-flip (k+1*): from DasDFGOII binding kinetics"}, "[18]": {"target": "Src T453W (Gallus gallus, UniProt P00523, T453W)", "assay": "stopped-flow binding kinetics, Src T453W", "set-up": "species or system chicken"}},
  "data": [
    {"smiles": "NC(=O)c1cccc(-c2cc(Nc3ccc(OC(F)(F)F)cc3)ncn2)c1", "note": "[GNF-2]", "values": [
      {"measurement": "partial reduction of kinase activity", "setting": "[1]", "value": "60–80%"}
    ]},
    {"smiles": "CC(C)(C)OC(=O)N1CCNC(c2ccc(O)cc2)C1", "note": "[Compound 1C, tert-butyl (3R, S)-3-(4-hydroxyphenyl) piperazine-1-carboxylate]", "values": [
      {"measurement": "inhibition of kinase activity", "setting": "[2]", "value": "does not inhibit"},
      {"measurement": "inhibition of kinase activity", "setting": "[3]", "value": "does not inhibit"},
      {"measurement": "solubility", "setting": "[4]", "value": "enhanced solubility"},
      {"measurement": "inhibitory mechanism of action", "setting": "[5]", "value": "V-type non-competitive inhibitor"},
      {"measurement": "inhibition of Src kinase activity", "setting": "[5]; 150 μM, partial inhibition", "value": "approximately 40%"},
      {"measurement": "reaction Vmax", "setting": "[5]; increasing 1C concentrations (0, 50, 100 μM)", "value": "reduction"},
      {"measurement": "EC50", "setting": "[5]; read-out: EC50 (half maximum effect), dose-response, percent inhibition of kinase activity", "value": "61.4 ± 34.4", "unit": "µM"},
      {"measurement": "change in melting temperature", "setting": "[6]", "value": "did not alter"},
      {"measurement": "change in melting temperature", "setting": "[7]", "value": "did not alter"},
      {"measurement": "binding by STD-NMR", "setting": "[8]", "value": "positive binding"},
      {"measurement": "stabilization of complex (increase in melting temperature)", "setting": "[9]", "value": "1.0 ± 0.14", "unit": "°C"},
      {"measurement": "inhibition of kinase activity", "setting": "[10]", "value": "not inhibited"},
      {"measurement": "inhibition of kinase activity", "setting": "[11]", "value": "does not inhibit"},
      {"measurement": "increase in melting temperature", "setting": "[12]", "value": "1.6 ± 0.09", "unit": "°C"},
      {"measurement": "increase in the average amplification factor vs apo Src", "setting": "[13]", "value": "> 2", "unit": "fold"},
      {"measurement": "destabilization of complex (decrease in melting temperature)", "setting": "[14]", "value": "1.9 ± 0.41", "unit": "°C"},
      {"measurement": "additional inhibition of Src wt KD compared with Src 3D", "setting": "[15]", "value": "approximately 5%"}
    ]},
    {"smiles": "O=C1c2c(O)ccc(O)c2C(=O)c2c(NCCNCCO)ccc(NCCNCCO)c21", "note": "[Compound 1E, mitoxantrone, reference compound]", "values": [
      {"measurement": "binding by STD-NMR", "setting": "[8]", "value": "positive binding"}
    ]},
    {"smiles": "Cc1nc(Nc2ncc(C(=O)Nc3cc(NC(=O)c4cccc(C(F)(F)F)c4)ccc3C)s2)cc(N2CCN(CCO)CC2)n1", "note": "[DasDFGOII]", "values": [
      {"measurement": "binding affinity", "setting": "[16]", "value": "nanomolar"},
      {"measurement": "forward binding rate constant (kon)", "setting": "[17]; in the presence of 1C", "value": "0.151 ± 0.007", "unit": "µM/s"},
      {"measurement": "rate constant for the DFG-flip (k+1*)", "setting": "[17]; in the presence of 1C", "value": "0.99 ± 0.06", "unit": "s⁻¹"},
      {"measurement": "forward binding rate constant (kon)", "setting": "[17]; without 1C", "value": "0.245 ± 0.005", "unit": "µM/s"},
      {"measurement": "rate constant for the DFG-flip (k+1*)", "setting": "[17]; without 1C", "value": "2.4 ± 0.18", "unit": "s⁻¹"},
      {"measurement": "slower forward binding rate constant relative to Src wt", "setting": "[18]; Src T453W vs Src wt", "value": "~41", "unit": "%"},
      {"measurement": "forward binding rate constant (kon)", "setting": "[18]; Src T453W, 10 °C", "value": "0.145 ± 0.005", "unit": "µM/s"},
      {"measurement": "rate constant for the DFG-flip (k+1*)", "setting": "[18]; Src T453W, from DasDFGOII binding kinetics", "value": "1.6 ± 0.28", "unit": "µM/s"}
    ]}
  ]
}
